BindingDB's records for doi:10.1021/jm0003891 (The R. W. Johnson Pharmaceutical Research Institute, 2001)
Values joined by “and” are separate entries in the source; they are usually repeats but may differ in a detail not shown here. Equal values may be shown once.

Test: In vitro binding affinity against alpha-2D adrenergic receptor of male Wistar rat

## CC(c1cnc[nH]1)c1sccc1Br (centres undefined)
  Ki: 0.96 nM and 0.18 nM

## Cc1ccsc1C(C)c1cnc[nH]1 (centres undefined)
  Ki: 0.78 nM and 2.1 nM

## Cc1cc(Cc2cnc[nH]2)c(C)s1
  Ki: 0.69 nM

## CCc1cc(Cc2cnc[nH]2)c(CC)s1
  Ki: 0.4 nM

## c1ccc2sc(Cc3cnc[nH]3)cc2c1
  Ki: 1.1 nM

## Cc1csc(Cc2cnc[nH]2)c1C
  Ki: 0.17 nM

## c1ccc2c(Cc3cnc[nH]3)csc2c1
  Ki: 0.09 nM

## Cc1csc(C)c1Cc1cnc[nH]1
  Ki: 0.1 nM

## Cc1cscc1C(C)c1cnc[nH]1 (centres undefined)
  Ki: 0.39 nM

## Brc1ccsc1Cc1cnc[nH]1
  Ki: 0.35 nM

## Cc1csc(C(C)c2cnc[nH]2)c1C (centres undefined)
  Ki: 0.75 nM

## CCC(c1cnc[nH]1)c1cscc1C (centres undefined)
  Ki: 0.97 nM

## Clc1cc(Cc2cnc[nH]2)c(Cl)s1
  Ki: 0.088 nM

## COC(c1cnc[nH]1)c1sccc1Br (centres undefined)
  Ki: 39 nM

## Cc1sccc1Cc1cnc[nH]1
  Ki: 0.44 nM

## Cc1sccc1C(C)c1cnc[nH]1 (centres undefined)
  Ki: 2.3 nM

## Cc1cscc1Cc1cnc[nH]1
  Ki: 0.47 nM

## c1ncc(Cc2ccsc2)[nH]1
  Ki: 3.1 nM

## c1ncc(Cc2cc3c(s2)CCCC3)[nH]1
  Ki: 3.7 nM

## CCc1cscc1Cc1cnc[nH]1
  Ki: 0.29 nM

## Cc1ccsc1Cc1cnc[nH]1
  Ki: 0.45 nM

## CC(c1cnc[nH]1)c1cscc1Br (centres undefined)
  Ki: 0.08 nM

## Brc1csc(Cc2cnc[nH]2)c1Br
  Ki: 0.07 nM

## CCc1sccc1Cc1cnc[nH]1
  Ki: 0.07 nM

## c1csc(Cc2cnc[nH]2)c1
  Ki: 8.7 nM

## Cc1ccc(Cc2cnc[nH]2)s1
  Ki: 3.6 nM

## COC(c1cnc[nH]1)c1cscc1C (centres undefined)
  Ki: 15.9 nM

## Cc1ccsc1C1(c2cnc[nH]2)CC1
  Ki: 1000 nM

## CCc1cscc1C(C)c1cnc[nH]1 (centres undefined)
  Ki: 0.28 nM

## Brc1cscc1Cc1cnc[nH]1
  Ki: 0.23 nM

## CC(C)c1cc(Cc2cnc[nH]2)c(C(C)C)s1
  Ki: 12 nM

## CCC(c1cnc[nH]1)c1sccc1C (centres undefined)
  Ki: 8.3 nM

## CC(c1cnc[nH]1)c1scc(Br)c1Br (centres undefined)
  Ki: 0.43 nM

## Cc1cccc([C@H](C)c2cnc[nH]2)c1C [4-[(1S)-1-(2,3-dimethylphenyl)ethyl]-1H-imidazole]
  Ki: 0.015 nM
